Assay [1] has as its system Human corneal epithelial cells (hCEC). Put plainly: WST-1 cell viability assay, 72 hours of treatment. As to conditions: DMSO-treated control 100 ± 9%, mean ± standard deviation. It counts as cell-based. Here is the method:
(§1) Human corneal epithelial cells (hCEC; SCCE016; Merck Millipore, Burlington, MA, USA) were cultured in corneal epithelial cell growth medium with supplement mix (LGC Standards, Teddington, United Kingdom). Approximately 10,000 hCECs were seeded onto each well of a 96-well cell-culture dishes (NUNC, Langenselbold, Germany). Confluent cells were used for Water-soluble tetrazolium salt (WST-1) cell proliferation assays (Hoffmann-La Roche AG, Basel, Switzerland). After 24 hours of incubation with 100 µl of corneal epithelial cell growth medium without its' supplement mix (LGC Standards, Teddington, United Kingdom), hCECs were treated with different concentrations of astragaloside IV (AIV; Selleckchem, Houston, TX, USA) dissolved in dimethyl sulfoxide (DMSO; Carl Roth AG, Karlsruhe, Germany). Control groups were treated with DMSO only. Following another 72 hours of incubation, the cells were incubated with the WST-1 solution for 30 minutes. Substrate turnover was measured with an ELISA reader at 450 nm (Spectramax 190; Molecular Devices, Sunnyvale, CA, USA) and a reference at 690 nm.
On the technique in general: Tetrazolium assays rely on reduction of a dye to a coloured formazan, in cell work by metabolically active cells.

Assay [2] deals with hCEC. Put plainly: BrdU ELISA cell proliferation assay, 24 hours of treatment. It counts as cell-based. The note with it: Homo sapiens, compared to DMSO-treated control, mean ± standard deviation. Here is the method:
Proliferation of hCEC was determined using a 5-bromo-2'-deoxyuridine (BrdU) ELISA in accordance with the manufacturers' recommendations (Merck KGaA, Darmstadt, Germany). In brief, approximately 7,000 cells were seeded onto a 96-well cell culture plate and incubated for 24h to achieve complete adherence of the cells. After 24 hours of incubation with 100 µl of corneal epithelial cell growth medium without its' supplement mix, hCECs were treated with astragaloside IV dissolved in DMSO. Following another 24 hours of incubation with BrdU labeling solution, cells were fixed and incubated with anti-BrdU antibodies according to the manufacturer's recommendations. BrdU incorporation into the DNA of hCECs was quantified by absorbance measurement at 450 nm using the ELISA reader Spectramax 190 (Molecular Devices, Sunnyvale, CA, USA).
On the technique in general: Dividing cells build labelled thymidine or BrdU into new DNA.

Assay [3] deals with hCEC. Description: Cell scratch assay (migration / wound healing in vitro), follow-up up to 72 hours. The assay is classed as cell-based, Human. As to conditions: 1 µM, 2.5 µM; follow-up of 72 hours; versus DMSO-only control; p > 0.05 for all groups. Here is the method:
To analyze hCEC migration in vitro, cells were cultured in corneal epithelial cell growth medium with supplement mix until confluence of the cells of a 6-well cell culture plate. Following an incubation period of 24 hours in cell culture medium without supplements, 5 linear scratches were performed in each well using a 200 µl pipette tip (Eppendorf AG, Hamburg, Germany). The hCECs were then incubated prospectively under treatment with astragaloside IV or DMSO as a control for up to 72 hours. Reference images were acquired at the beginning of the incubation period using the phase contrast mode on an Axio Observer 7 (Carl Zeiss AG, Jena, Germany). Every 24 hours, follow-up images of 4-5 different scratch sections were acquired. The size of the wound area was analyzed using a semi-automated analysis tool in ImageJ 1.53a (National Institute of Health, Bethesda, MD, USA).

In the next assay the test system is bovine corneas. Put plainly: Corneal erosion assay ex vivo (epithelial wound healing), follow-up 72 hours. The note with it: 1 µM or 2.5 µM, every 12 hours up to 72 hours, versus DMSO-treated control, p > 0.05 for all groups. As for the experimental part: Furthermore, corneal epithelial cell wound healing was determined on bovine corneas ex vivo. Bovine globes were obtained from a local butchery following approval by the authority for waste management of animal carcasses (ID: DE 09 162 0066-219) and processed within 12 hours post-mortem. The bovine globes were washed in 10% w/v povidone-iodine for 5 minutes. A circular corneal epithelial erosion was created using an 8 mm trephine and a hockey knife (Katena Products Inc., Parsippany, NJ, USA). Subsequently, a sclerocorneal ring was excised with eye scissors (Katena Products Inc., Parsippany, NJ, USA) and transferred to a 60 mm cell culture plate. To acquire reference images of the corneal erosion, the wound area was stained with a 0.8 mg/ml fluorescein sodium solution and illuminated with blue light (approximate wavelength 490 nm). Images were acquired using a distance-fixed digital single lens reflex camera equipped with a macro lens (Canon Inc., Tokyo, Japan). Consequently, the sclerocorneal rings were incubated in Dulbecco's Modified Eagle's Medium (Bio&SELL GmbH, Feucht, Germany) supplemented with 50 IU penicillin/ml and 50 µg streptomycin/ml (Merck Millipore, Burlington, MA, USA) and astragaloside IV or DMSO only. Follow-up images were acquired every 12 hours, the cell culture medium was renewed daily.

Assay [4] deals with human corneal epithelial cells. Description: WST-1 cell viability assay under oxidative stress (H2O2 100 µM, 24 hours). The assay is classed as cell-based. As to conditions: H2O2 group 79 ± 14%, untreated control 100 ± 3%. Here is the method:
as §1
To determine potential anti-oxidative effects of astragaloside IV, hCECs were incubated and treated analogous to the above-mentioned WST-1 cell proliferation assay with minor modifications. […]

The subject of assay [5] is Intracellular, mitochondrial reactive oxygen species (ROS). Put plainly: Dihydrorhodamine-123 (DHR-123) fluorescence assay of ROS under oxidative stress (H2O2, 2 hours). The assay is classed as cell-based. The note with it: Homo sapiens, HCEC, hCECs, percent of DMSO control, H2O2 group 149 ± 9%, p = 0.0006 vs H2O2. Here is the method:
Intracellular, mitochondrial reactive oxygen species (ROS) were assessed using the cell membrane permeable dihydrorhodamine-123 (DHR-123) assay (D23806; ThermoFisher Scientific, Waltham, MA, USA) according to the manufacturer's instructions. Measurements were made after exposing human corneal epithelial cells to H2O2, astragaloside IV or DMSO for 2 hours. For ROS staining, cells were incubated with 10 µM DHR-123 for 15 minutes. Nucleus staining was performed using Hoechst 33342 nucleic acid stain (H1399; ThermoFisher Scientific, Waltham, MA, USA). Randomly, a minimum of 3 images of every treatment group were acquired with a 20x fluorescence objective using the aforementioned Axio Observer 7. Results were expressed in percent of fluorescence intensity relative to the baseline measurement in the DMSO control group. For quantification of the fluorescence signals, the microscope software ZEN 3.0 (Carl Zeiss AG, Jena, Germany) was used.

This is an account of results in patent publication EP4104817A1, “OPHTHALMIC COMPOSITION COMPRISING ASTRAGALOSIDE IV” (Skeye Pharma GbR, priority 2021, dated 2022).

The structures appear in SMILES notation.

For orientation: viability means a read-out of living cells in per cent, often relative to untreated cells. As for `CC(C)(O)C1CCC(C)(C2C(O)CC3(C)C4CC(OC5OC(CO)C(O)C(O)C5O)C5C(C)(C)C(OC6OCC(O)C(O)C6O)CCC56CC46CCC23C)O1` [astragaloside IV, (2R,3R,4S,5S,6R)-2-(((2aR,3R,4R,5aS,7R,11aR)-4-hydroxy-3-((2R,5S)-5-(2-hydroxypropan-2-yl)-2-methyltetrahydrofuran-2-yl)-2a,5a,8,8-tetramethyl-9-(((2S,3R,4S,5R)-3,4,5-trihydroxytetrahydro-2H-pyran-2-yl)oxy)hexadecahydrocyclopenta[a]cyclopropa[e]phenanthren-7-yl)oxy)-6-(hydroxymethyl)tetrahydro-2H-pyran-3,4,5-triol], the viability at 1 µM is 154 ± 33% in assay [1] (1 µM, p < 0.0001) and 91 ± 4% in assay [4] (1 µM with H2O2 100 µM, p = 0.0044 vs H2O2). Moreover, the viability at 2.5 µM worked out at 149 ± 27% in assay [1] (2.5 µM, p < 0.0001) and 95 ± 6% in assay [4] (2.5 µM with H2O2 100 µM, p = 0.0002 vs H2O2). Moreover, the viability at 5 µM in assay [1] (5 µM, p = 0.0003) amounted to 138 ± 22%. Moreover, in assay [1] (10 µM, non-significant decrease, p > 0.9999), the viability at 10 µM was 89 ± 5%. The activity at 1 µM came out at 125 ± 26% with hCEC [2] (1 µM, p = 0.0028, read-out: corneal epithelial cell proliferation) and 94 ± 7% in assay [5] (1 µM with H2O2 100 µM). Besides, the activity at 2.5 µM is 126 ± 30% with hCEC [2] (2.5 µM, p = 0.0017, read-out: corneal epithelial cell proliferation) and 94 ± 15% in assay [5] (2.5 µM with H2O2 100 µM). Moreover, the activity at 5 µM in the assay with hCEC [2] (5 µM, not significant, p > 0.9999, read-out: corneal epithelial cell proliferation) came out at 112 ± 14%. The “corneal epithelial cell migration (scratched hCEC area over time)” value with hCEC [3] is “none of the treatment groups showed a significant decrease of corneal epithelial cell migration”. The speed of re-epithelialization result with bovine corneas is reported as “did not show any significant difference in the speed of re-epithelialization”.
